Experimental data: publication PMC8371902, “Phase 1 study of M2698, a p70S6K/AKT dual inhibitor, in patients with advanced cancer” (Journal of Hematology & Oncology, 2021)
Read-outs that look alike come from different tables or passages of the source.

System: patients with advanced metastatic cancer
Source text: In this phase 1 study, dose escalation was followed by expansion cohorts of once-daily, oral M2698 in continuous 21-day cycles. Primary objectives were to determine the maximum tolerated dose (MTD), dose-limiting toxicities (DLTs), and recommended phase 2 dose (RP2D). Secondary objectives were to assess safety and tolerability, pharmacokinetics (PK, including food effect) and antitumor activity. Pharmacodynamic biomarker assessments were exploratory. Treatment was discontinued if there was disease progression, toxicity or consent withdrawal.
In Part 1, M2698 monotherapy was investigated in a dose escalation with a food effect cohort. In Part 2, M2698 was investigated as monotherapy (expansion cohort) to further characterize safety, tolerability and pharmacokinetics, and assess antitumor activity in PAM + patients without confounding markers (exploratory).
Dose escalation analysis included all patients who experienced a DLT and those who received ≥ 80% of planned M2698 doses in cycle 1 without experiencing a DLT. Safety analysis included all patients who received ≥ 1 dose of M2698. PK analysis included all patients who received ≥ 1 dose of M2698 and had measurable plasma concentrations. Dose proportionality was tested using the power model (linear regression approach on the log -transformed scale).

NC(=O)c1cccc2c(N[C@H](CN3CCC3)c3ccc(Cl)c(C(F)(F)F)c3)ncnc12 [M2698]
M2698-related TEAE: Dysphagia (380 mg n=4): 0
M2698-related TEAE: Energy increased (380 mg n=4): 0
M2698-related TEAE: Erythema (380 mg n=4): 0
M2698-related TEAE: Euphoric mood (380 mg n=4): 0
M2698-related TEAE: Eye disorders (380 mg n=4): 0
M2698-related TEAE: Fatigue (380 mg n=4): 0
M2698-related TEAE: Gamma-glutamyltransferase increased (380 mg n=4): 0
M2698-related TEAE: Gastrointestinal disorders (380 mg n=4): 2
M2698-related TEAE: Gastrooesophageal reflux disease (380 mg n=4): 0
M2698-related TEAE: General disorders and administration site conditions (380 mg n=4): 0
M2698-related TEAE: Headache (380 mg n=4): 0
M2698-related TEAE: Hyperhidrosis (380 mg n=4): 0
M2698-related TEAE: Hypokalaemia (380 mg n=4): 0
M2698-related TEAE: Hypomagnesaemia (380 mg n=4): 0
M2698-related TEAE: Insomnia (380 mg n=4): 0
M2698-related TEAE: Investigations (380 mg n=4): 1
M2698-related TEAE: Lipase increased (380 mg n=4): 0
M2698-related TEAE: Lymphopenia (380 mg n=4): 0
M2698-related TEAE: Metabolism and nutrition disorders (380 mg n=4): 0
M2698-related TEAE: Mucosal inflammation (380 mg n=4): 0
M2698-related TEAE: Nausea (380 mg n=4): 1
M2698-related TEAE: Nervous system disorders (380 mg n=4): 1
M2698-related TEAE: Nightmare (380 mg n=4): 0
M2698-related TEAE: Onychomadesis (380 mg n=4): 0
M2698-related TEAE: Paranoia (380 mg n=4): 0
M2698-related TEAE: Photosensitivity reaction (380 mg n=4): 0
M2698-related TEAE: Posterior reversible encephalopathy syndrome (380 mg n=4): 1
M2698-related TEAE: Pruritus generalised (380 mg n=4): 0
M2698-related TEAE: Psychiatric disorders (380 mg n=4): 0
M2698-related TEAE: Rash (380 mg n=4): 0
M2698-related TEAE: Rash maculo-papular (380 mg n=4): 0
M2698-related TEAE: Skin and subcutaneous tissue disorders (380 mg n=4): 0
M2698-related TEAE: Subjects with at least one event (380 mg n=4): 3
M2698-related TEAE: Transaminases increased (380 mg n=4): 0
M2698-related TEAE: Tremor (380 mg n=4): 0
M2698-related TEAE: Vision blurred (380 mg n=4): 0
M2698-related TEAE: Vomiting (380 mg n=4): 1
M2698-related TEAE: White blood cell count decreased (380 mg n=4): 0
M2698-related TEAE: Abnormal dreams (Overall N=62): 6 (9.7) n (%)
M2698-related TEAE: Affect lability (Overall N=62): 1 (1.6) n (%)
M2698-related TEAE: Alanine aminotransferase increased (Overall N=62): 1 (1.6) n (%)
M2698-related TEAE: Amylase increased (Overall N=62): 1 (1.6) n (%)
M2698-related TEAE: Anaemia (Overall N=62): 2 (3.2) n (%)
M2698-related TEAE: Angina pectoris (Overall N=62): 1 (1.6) n (%)
M2698-related TEAE: Anxiety (Overall N=62): 1 (1.6) n (%)
M2698-related TEAE: Aphasia (Overall N=62): 1 (1.6) n (%)
M2698-related TEAE: Ataxia (Overall N=62): 1 (1.6) n (%)
M2698-related TEAE: Blood and lymphatic system disorders (Overall N=62): 3 (4.8) n (%)
M2698-related TEAE: Blood creatine phosphokinase increased (Overall N=62): 2 (3.2) n (%)
M2698-related TEAE: Blood creatinine increased (Overall N=62): 2 (3.2) n (%)
M2698-related TEAE: Cardiac disorders (Overall N=62): 1 (1.6) n (%)
M2698-related TEAE: Cognitive disorder (Overall N=62): 1 (1.6) n (%)
M2698-related TEAE: Constipation (Overall N=62): 3 (4.8) n (%)
M2698-related TEAE: Decreased appetite (Overall N=62): 2 (3.2) n (%)
M2698-related TEAE: Delusion (Overall N=62): 1 (1.6) n (%)
M2698-related TEAE: Depression (Overall N=62): 2 (3.2) n (%)
M2698-related TEAE: Diarrhoea (Overall N=62): 7 (11.3) n (%)
M2698-related TEAE: Diarrhoea haemorrhagic (Overall N=62): 1 (1.6) n (%)
M2698-related TEAE: Dizziness (Overall N=62): 1 (1.6) n (%)
M2698-related TEAE: Dry eye (Overall N=62): 1 (1.6) n (%)
M2698-related TEAE: Dry mouth (Overall N=62): 1 (1.6) n (%)
M2698-related TEAE: Dysgeusia (Overall N=62): 2 (3.2) n (%)
M2698-related TEAE: Dyspepsia (Overall N=62): 1 (1.6) n (%)
M2698-related TEAE: Dysphagia (Overall N=62): 1 (1.6) n (%)
M2698-related TEAE: Energy increased (Overall N=62): 1 (1.6) n (%)
M2698-related TEAE: Erythema (Overall N=62): 1 (1.6) n (%)
M2698-related TEAE: Euphoric mood (Overall N=62): 1 (1.6) n (%)
M2698-related TEAE: Eye disorders (Overall N=62): 2 (3.2) n (%)
M2698-related TEAE: Fatigue (Overall N=62): 4 (6.5) n (%)
M2698-related TEAE: Gamma-glutamyltransferase increased (Overall N=62): 2 (3.2) n (%)
M2698-related TEAE: Gastrointestinal disorders (Overall N=62): 18 (29.0) n (%)
M2698-related TEAE: Gastrooesophageal reflux disease (Overall N=62): 1 (1.6) n (%)
M2698-related TEAE: General disorders and administration site conditions (Overall N=62): 6 (9.7) n (%)
M2698-related TEAE: Headache (Overall N=62): 1 (1.6) n (%)
M2698-related TEAE: Hyperhidrosis (Overall N=62): 1 (1.6) n (%)
M2698-related TEAE: Hypokalaemia (Overall N=62): 2 (3.2) n (%)
M2698-related TEAE: Hypomagnesaemia (Overall N=62): 1 (1.6) n (%)
M2698-related TEAE: Insomnia (Overall N=62): 2 (3.2) n (%)
M2698-related TEAE: Investigations (Overall N=62): 9 (14.5) n (%)
M2698-related TEAE: Lipase increased (Overall N=62): 1 (1.6) n (%)
M2698-related TEAE: Lymphopenia (Overall N=62): 1 (1.6) n (%)
M2698-related TEAE: Metabolism and nutrition disorders (Overall N=62): 4 (6.5) n (%)
M2698-related TEAE: Mucosal inflammation (Overall N=62): 1 (1.6) n (%)
M2698-related TEAE: Nausea (Overall N=62): 12 (19.4) n (%)
M2698-related TEAE: Nervous system disorders (Overall N=62): 10 (16.1) n (%)
M2698-related TEAE: Nightmare (Overall N=62): 1 (1.6) n (%)
M2698-related TEAE: Onychomadesis (Overall N=62): 1 (1.6) n (%)
M2698-related TEAE: Paranoia (Overall N=62): 1 (1.6) n (%)
M2698-related TEAE: Photosensitivity reaction (Overall N=62): 1 (1.6) n (%)
M2698-related TEAE: Posterior reversible encephalopathy syndrome (Overall N=62): 1 (1.6) n (%)
M2698-related TEAE: Pruritus generalised (Overall N=62): 1 (1.6) n (%)
M2698-related TEAE: Psychiatric disorders (Overall N=62): 10 (16.1) n (%)
M2698-related TEAE: Rash (Overall N=62): 1 (1.6) n (%)
M2698-related TEAE: Rash maculo-papular (Overall N=62): 2 (3.2) n (%)
M2698-related TEAE: Skin and subcutaneous tissue disorders (Overall N=62): 8 (12.9) n (%)
M2698-related TEAE: Subjects with at least one event (Overall N=62): 34 (54.8) n (%)
M2698-related TEAE: Transaminases increased (Overall N=62): 1 (1.6) n (%)
M2698-related TEAE: Tremor (Overall N=62): 4 (6.5) n (%)
M2698-related TEAE: Vision blurred (Overall N=62): 1 (1.6) n (%)
